Assay [1] has as its target T1, DAT (H193K) (Homo sapiens, UniProt Q01959, H193K).
T1 construct: expressed in transfected cells; host or cells: HEK293 (transient, calcium phosphate)
Nature of the assay: Zinc inhibition of [3H]MPP+ uptake in HEK293 cells transiently expressing DAT-H193K. Format: cell-based. The settings on record: [3H]MPP+ uptake inhibition, homogeneous (mono-phasic) inhibition curve, mean ± S.E., read-out: Low-affinity site: IC50 (Zn^2+). The method, then: (§1) Wild-type human DAT was generously donated by Marc G. Caron; DAT H193K was a generous gift from Ulrik Gether. Wild-type and mutant DAT were YFP tagged at their N-terminus as described in Egana et al.. Mutagenesis was performed using the Quickchange Lightning Kit by Agilent Technologies. Primers were designed using the “quickchange primer design tool” by Agilent. Primers used were: D206K: (5′-3′): […]; D206C: (5′-3′): […].
(§2) HEK293 cells were cultured in Dulbecco's modified Eagle's medium (DMEM) with high glucose (4.5 g/liter) and L-glutamine (584 mg/liter), supplemented with 10% fetal calf serum (FCS), 100 units/ml penicillin and 100 µg/ml streptomycin. The cells were maintained at 37°C in a humidified atmosphere of 5% CO2/95% air on standard plastic culture ware. […]
(§3) Cells were seeded at 0.5×10^5 cells/ml into poly-D-lysine coated 48 well plates twenty-four hours after calcium phosphate transfection with either wild-type or mutant DAT. […] Non-specific uptake was determined in the presence of 10 µM mazindol.
(§4) Uptake data are given by mean values ± S.E, obtained from n = 6–8 experiments. Total uptake data were corrected for non-specific uptake and expressed as a percentage of 0 mM ZnCl2 for each experiment. IC50 values were calculated for each mutant by performing non-linear regression analysis using PRISM version 4.0 (GraphPad Software, Inc., San Diego, CA).

In assay [2] the target is T2, DAT (D206C) (Homo sapiens, UniProt Q01959, D206C).
T2 construct: expressed in transfected cells; host or cells: HEK293 (transient, calcium phosphate)
T2 sequence (Q01959 whole entry D206C): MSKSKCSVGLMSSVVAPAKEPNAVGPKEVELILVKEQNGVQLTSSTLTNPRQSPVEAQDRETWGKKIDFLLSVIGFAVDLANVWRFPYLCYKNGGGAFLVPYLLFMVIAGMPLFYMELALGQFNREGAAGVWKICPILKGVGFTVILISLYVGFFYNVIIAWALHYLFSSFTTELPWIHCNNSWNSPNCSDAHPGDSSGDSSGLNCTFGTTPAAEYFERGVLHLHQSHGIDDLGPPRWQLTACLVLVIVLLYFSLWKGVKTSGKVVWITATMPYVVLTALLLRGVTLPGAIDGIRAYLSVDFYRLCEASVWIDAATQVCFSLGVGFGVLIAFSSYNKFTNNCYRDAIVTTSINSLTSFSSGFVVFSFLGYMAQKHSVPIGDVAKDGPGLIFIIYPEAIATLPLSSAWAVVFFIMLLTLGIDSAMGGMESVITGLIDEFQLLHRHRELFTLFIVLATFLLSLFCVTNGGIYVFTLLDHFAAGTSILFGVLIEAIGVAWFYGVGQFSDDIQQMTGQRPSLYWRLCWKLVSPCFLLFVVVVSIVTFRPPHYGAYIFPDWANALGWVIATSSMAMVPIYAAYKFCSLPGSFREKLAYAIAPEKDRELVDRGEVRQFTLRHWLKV
Nature of the assay: Zinc inhibition of [3H]MPP+ uptake in HEK293 cells transiently expressing DAT-D206C. Format: cell-based. The method, then: as §1
(§5) HEK293 cells were cultured in Dulbecco's modified Eagle's medium (DMEM) with high glucose (4.5 g/liter) and L-glutamine (584 mg/liter), supplemented with 10% fetal calf serum (FCS), 100 units/ml penicillin and 100 µg/ml streptomycin. The cells were maintained at 37°C in a humidified atmosphere of 5% CO2/95% air on standard plastic culture ware. The cells were transiently transfected with 2–10 µg of plasmid DNA as required, using the calcium phosphate precipitation method.
(§6) Cells were seeded at 0.5×10^5 cells/ml into poly-D-lysine coated 48 well plates twenty-four hours after calcium phosphate transfection with either wild-type or mutant DAT. Uptakes were performed as described previously. In brief, the cell medium was aspirated and the cells were washed once with Krebs-HEPES buffer at room temperature. The washed cells were pre-incubated with Krebs-HEPES buffer in the presence of 0–10 mM ZnCl2 for 5 min at room temperature. In the first step of the assay, this buffer was replaced with Krebs-Hepes buffer containing the appropriate ZnCl2 concentration and 0.02 µM [^3H]MPP^+. After three minutes substrate uptake was stopped by exchange of the substrate containing buffer with ice-cold Krebs-Hepes buffer. […] Non-specific uptake was determined in the presence of 10 µM mazindol.
as §4

The target in assay [3] is T3, DAT (D206E) (Homo sapiens, UniProt Q01959, D206E).
T3 construct: expressed in transfected cells; host or cells: HEK293 (transient, calcium phosphate)
T3 sequence (Q01959 whole entry D206E): as the sequence (Q01959 whole entry D206C) above, with C206E counted along it
Nature of the assay: Zinc inhibition of [3H]MPP+ uptake in HEK293 cells transiently expressing DAT-D206E. Format: cell-based. The settings on record: [3H]MPP+ uptake inhibition, mean ± S.E. As for the experimental part: as §1, §2, §3, §4

In assay [4] the target is T4, DAT (wild-type) (Homo sapiens, UniProt Q01959).
T4 construct: expressed in transfected cells; host or cells: HEK293 (transient, calcium phosphate)
T4 sequence (Q01959 whole entry): as the sequence (Q01959 whole entry D206C) above, with C206D counted along it
Nature of the assay: Zinc inhibition of [3H]MPP+ uptake in HEK293 cells transiently expressing wild-type DAT. Format: cell-based. The note with it: for IC50: [3H]MPP+ uptake inhibition, HEK293 cells, bi-phasic fit, mean ± S.E. As for the experimental part: as §5
Cells were seeded at 0.5×10^5 cells/ml into poly-D-lysine coated 48 well plates twenty-four hours after calcium phosphate transfection with either wild-type or mutant DAT. Uptakes were performed as described previously. In brief, the cell medium was aspirated and the cells were washed once with Krebs-HEPES buffer at room temperature. The washed cells were pre-incubated with Krebs-HEPES buffer in the presence of 0–10 mM ZnCl2 for 5 min at room temperature. In the first step of the assay, this buffer was replaced with Krebs-Hepes buffer containing the appropriate ZnCl2 concentration and 0.02 µM [^3H]MPP^+. After three minutes substrate uptake was stopped by exchange of the substrate containing buffer with ice-cold Krebs-Hepes buffer. The cells were lysed in 1% SDS and transferred to scintillation vials. Scintillation cocktail was added and the vials were assayed for [^3H] content by liquid scintillation counting. Non-specific uptake was determined in the presence of 10 µM mazindol.
as §4

Assay [5] deals with DAT. Also noted: method as in PMID 9687495, PMID 8423763. The settings on record: synaptosomes and heterologous expression systems; cited from earlier work.
In assay [6] the target is T5, DAT (D206A) (Homo sapiens, UniProt Q01959, D206A).
T5 construct: expressed in transfected cells; host or cells: HEK293 (transient, calcium phosphate)
T5 sequence (Q01959 whole entry D206A): as the sequence (Q01959 whole entry D206C) above, with C206A counted along it
Nature of the assay: Zinc inhibition of [3H]MPP+ uptake in HEK293 cells transiently expressing DAT-D206A. Format: cell-based. The settings on record: [3H]MPP+ uptake inhibition, mean ± S.E. The method, then: as §1, §2, §3, §4

The target of assay [7] is T6, DAT (D206K) (Homo sapiens, UniProt Q01959, D206K).
T6 construct: expressed in transfected cells; host or cells: HEK293 (transient, calcium phosphate)
T6 sequence (Q01959 whole entry D206K): as the sequence (Q01959 whole entry D206C) above, with C206K counted along it
Nature of the assay: Zinc inhibition of [3H]MPP+ uptake in HEK293 cells transiently expressing DAT-D206K. Format: cell-based. The note with it: for IC50: [3H]MPP+ uptake inhibition, HEK293 cells, DAT D206K, mean ± S.E. As for the experimental part: as §1, §5, §6, §4

Where [8] appears, read: read-out: High-affinity site: IC50 (Zn^2+).
[9] abbreviates: read-out: Low-affinity site: IC50 (Zn^2+).

“And” between values parts separate entries of the source, which are not always exact repeats. Identical values can stand only once. Like-named read-outs stand apart in the source and are kept apart here.

Here are results for one molecule from publication PMC3578762, “Mutational Analysis of the High-Affinity Zinc Binding Site Validates a Refined Human Dopamine Transporter Homology Model” (PLoS Computational Biology, 2013).

T1 sequence (Q01959 whole entry H193K): as the sequence (Q01959 whole entry D206C) above, with H193K, C206D counted along it

In the case of `[Zn+2]` [zinc], the IC50 in assay [1] was 102 ± 8 µM; in assay [2] ([3H]MPP+ uptake inhibition, HEK293 cells, DAT D206C, mean ± S.E., read-out: High-affinity site: IC50 (Zn^2+)), 6.81 ± 1.4 µM; in assay [3] (setting [8]) it was 1.22 ± 0.3 µM; in assay [3] (setting [9]) it was 857 ± 76 µM; in assay [4] (setting [8]), 1 µM and 0.91 µM; in assay [4] (setting [9]) it was 798 ± 84 µM. The IC50 in assay [6] (setting [8]) is 0.79 ± 0.1 µM; in assay [6] (setting [9]) it was 219 ± 14 µM; in assay [7] (setting [8]), 2.54 ± 0.8 µM; in assay [7] (setting [9]), 682 ± 100 µM. Further, the “Inhibition of transport upon saturation of the high affinity site” value in assay [2] (DAT-D206C, [3H]MPP+ uptake, HEK293 cells) is recorded as “almost complete inhibition of transport”. In assay [2] (DAT-D206C, at 250 µM zinc), the “Occupancy of the high affinity site predicted” value is recorded as 99%. In addition, the “Reduction of the transport rate of DAT upon zinc binding” value in assay [4] (zinc bound to high-affinity site) is on record as about 50%. Further, the “IC50 of inhibition of dopamine re-uptake” value in assay [5] was “low µM range”. For the same molecule, the “Reduction of inhibitory potency of zinc on the high-affinity component versus wild-type” value in assay [7] (DAT-D206K versus wild-type DAT) is “approximately three fold”.

Usually IC50 stands for the midpoint of a concentration-inhibition curve.
